Patent US9751824B2, “Acetyl salicyclic acid dimers, synthesis thereof, and uses thereof to prevent and treat complement-mediated disorders” (Aurin Biotech Inc., priority 2013, dated 2017)
pIC50: −log10 of the molar value.

Experiments:
C6 = target: T1, C6 (Homo sapiens, UniProt P13671); assay: Fluorometric binding to immobilized protein (FIG. 6); conditions: compound 100 microgm/mL; protein 32 ng/mL
T1 construct: purchased Sigma, St. Louis, MO
Method: (§1) The next set of experiments directly tested the binding of DAS-1 and DAS-2 to properdin, Factor D and complement proteins. These proteins were immobilized on microwell plates in a concentration range of 1-32 ng/mL. DAS-1 and DAS-2 were then added at a concentration of 100 microgm/mL and the solutions incubated as previously described. DAS-1 and DAS-2 binding to the proteins was then assayed according to a previously published fluorometric method except that the excitation frequency was […] and the emission frequency […]. […] Such binding explains why DAS-1 and DAS-2 block the alternative pathway at the stage where Factor D cleaves PC3B to form PC3Bb, and both the classical and alternative pathways at the stage where C9 adds to C5b678. […] There was no binding of DAS-1 or DAS-2 to properdin and only background fluorescence was observed.

C8 = target: T2, C8 (Homo sapiens, UniProt P07357+P07358+P07360); assay: as above; conditions: compound 100 microgm/mL; protein 32 ng/mL
T2 construct: purchased Sigma, St. Louis, MO
Method: as §1

Factor D = target: T3, Factor D (Homo sapiens, UniProt P00746); assay: as above; conditions: compound 100 microgm/mL; protein immobilized 1-32 ng/mL
T3 construct: purchased Quidel, San Diego, CA
T3 sequence (P00746 26-253): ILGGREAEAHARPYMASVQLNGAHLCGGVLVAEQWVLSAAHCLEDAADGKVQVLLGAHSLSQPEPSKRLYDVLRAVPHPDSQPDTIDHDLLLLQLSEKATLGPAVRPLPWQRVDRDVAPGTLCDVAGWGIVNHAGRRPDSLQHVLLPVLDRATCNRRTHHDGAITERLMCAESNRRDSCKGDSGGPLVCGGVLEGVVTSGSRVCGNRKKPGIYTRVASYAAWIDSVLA
Method: as §1

C5 = target: T4, C5 (Homo sapiens, UniProt P01031); assay: as above; conditions: compound 100 microgm/mL; protein 32 ng/mL
T4 construct: purchased Complement technology Inc., Tyler, TX
Method: as §1

C7 = target: T5, C7 (Homo sapiens, UniProt P10643); assay: as above; conditions: compound 100 microgm/mL; protein 32 ng/mL
T5 construct: purchased Quidel, San Diego, CA
T5 sequence (P10643 23-843): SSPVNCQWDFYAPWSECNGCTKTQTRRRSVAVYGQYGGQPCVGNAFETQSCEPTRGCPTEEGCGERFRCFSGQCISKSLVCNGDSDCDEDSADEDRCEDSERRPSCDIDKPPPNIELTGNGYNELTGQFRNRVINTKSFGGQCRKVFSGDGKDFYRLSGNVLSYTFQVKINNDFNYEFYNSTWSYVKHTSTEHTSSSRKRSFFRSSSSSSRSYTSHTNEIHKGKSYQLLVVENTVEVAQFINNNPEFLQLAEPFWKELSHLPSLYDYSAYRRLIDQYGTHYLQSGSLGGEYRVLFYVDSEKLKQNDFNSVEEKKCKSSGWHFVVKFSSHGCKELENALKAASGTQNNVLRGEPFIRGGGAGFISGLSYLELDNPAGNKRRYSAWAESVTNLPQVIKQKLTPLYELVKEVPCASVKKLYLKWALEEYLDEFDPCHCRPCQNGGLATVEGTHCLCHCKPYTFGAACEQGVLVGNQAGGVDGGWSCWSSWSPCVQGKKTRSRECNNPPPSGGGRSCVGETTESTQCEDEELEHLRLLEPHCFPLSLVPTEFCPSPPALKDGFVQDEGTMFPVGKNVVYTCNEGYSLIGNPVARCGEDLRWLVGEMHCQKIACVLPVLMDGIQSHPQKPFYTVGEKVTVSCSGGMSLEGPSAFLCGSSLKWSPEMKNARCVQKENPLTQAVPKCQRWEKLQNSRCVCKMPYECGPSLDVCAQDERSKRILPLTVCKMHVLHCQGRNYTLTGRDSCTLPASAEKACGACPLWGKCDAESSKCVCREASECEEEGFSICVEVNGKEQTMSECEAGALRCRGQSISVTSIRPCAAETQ
Method: as §1

C9 = target: T6, C9 (Homo sapiens, UniProt P02748); assay: as above; conditions: compound 100 microgm/mL; protein immobilized 1-32 ng/mL
T6 construct: purchased Sigma, St. Louis, MO
T6 sequence (P02748 22-559): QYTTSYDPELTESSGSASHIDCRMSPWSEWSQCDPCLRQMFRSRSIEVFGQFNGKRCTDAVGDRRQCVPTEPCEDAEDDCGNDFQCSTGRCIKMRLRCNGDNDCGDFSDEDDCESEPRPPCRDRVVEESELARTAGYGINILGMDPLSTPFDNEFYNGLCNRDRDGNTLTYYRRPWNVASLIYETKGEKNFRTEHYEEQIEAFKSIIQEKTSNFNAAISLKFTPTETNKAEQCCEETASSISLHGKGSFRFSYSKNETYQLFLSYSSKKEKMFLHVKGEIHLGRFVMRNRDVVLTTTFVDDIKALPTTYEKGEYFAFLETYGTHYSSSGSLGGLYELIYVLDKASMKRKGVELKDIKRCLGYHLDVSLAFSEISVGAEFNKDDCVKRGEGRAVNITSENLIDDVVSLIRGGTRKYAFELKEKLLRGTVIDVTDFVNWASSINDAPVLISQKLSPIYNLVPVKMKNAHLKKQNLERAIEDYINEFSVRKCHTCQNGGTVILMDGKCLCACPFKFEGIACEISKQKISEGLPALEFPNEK
Method: as §1

C2 = target: T7, C2 (Homo sapiens, UniProt P06681); assay: as above; conditions: compound 100 microgm/mL; protein 32 ng/mL
T7 construct: purchased Sino Biologicals Inc., Beijing, China
T7 sequence (P06681 21-752): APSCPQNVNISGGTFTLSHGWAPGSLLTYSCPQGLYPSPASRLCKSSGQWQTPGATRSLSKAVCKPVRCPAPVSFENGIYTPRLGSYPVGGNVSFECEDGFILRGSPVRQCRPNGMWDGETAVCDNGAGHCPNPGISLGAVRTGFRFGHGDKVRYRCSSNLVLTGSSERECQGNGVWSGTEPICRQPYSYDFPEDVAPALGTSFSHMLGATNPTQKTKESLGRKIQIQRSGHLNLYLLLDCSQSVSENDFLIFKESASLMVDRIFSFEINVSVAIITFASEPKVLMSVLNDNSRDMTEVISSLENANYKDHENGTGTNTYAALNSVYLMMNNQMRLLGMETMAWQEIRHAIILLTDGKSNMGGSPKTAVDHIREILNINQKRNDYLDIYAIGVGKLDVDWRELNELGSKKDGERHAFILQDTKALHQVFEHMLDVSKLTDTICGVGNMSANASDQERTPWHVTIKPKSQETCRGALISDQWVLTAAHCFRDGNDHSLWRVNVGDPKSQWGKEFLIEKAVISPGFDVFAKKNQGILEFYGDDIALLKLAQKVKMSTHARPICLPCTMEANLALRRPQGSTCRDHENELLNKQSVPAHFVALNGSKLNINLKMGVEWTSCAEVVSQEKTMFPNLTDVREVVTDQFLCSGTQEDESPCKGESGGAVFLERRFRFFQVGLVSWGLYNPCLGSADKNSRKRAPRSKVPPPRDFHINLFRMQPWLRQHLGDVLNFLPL
Method: as §1

properdin = target: T8, properdin (Homo sapiens, UniProt P27918); assay: as above; conditions: compound 100 microgm/mL; only background fluorescence
T8 construct: purchased Quidel, San Diego, CA
T8 sequence (P27918 28-469): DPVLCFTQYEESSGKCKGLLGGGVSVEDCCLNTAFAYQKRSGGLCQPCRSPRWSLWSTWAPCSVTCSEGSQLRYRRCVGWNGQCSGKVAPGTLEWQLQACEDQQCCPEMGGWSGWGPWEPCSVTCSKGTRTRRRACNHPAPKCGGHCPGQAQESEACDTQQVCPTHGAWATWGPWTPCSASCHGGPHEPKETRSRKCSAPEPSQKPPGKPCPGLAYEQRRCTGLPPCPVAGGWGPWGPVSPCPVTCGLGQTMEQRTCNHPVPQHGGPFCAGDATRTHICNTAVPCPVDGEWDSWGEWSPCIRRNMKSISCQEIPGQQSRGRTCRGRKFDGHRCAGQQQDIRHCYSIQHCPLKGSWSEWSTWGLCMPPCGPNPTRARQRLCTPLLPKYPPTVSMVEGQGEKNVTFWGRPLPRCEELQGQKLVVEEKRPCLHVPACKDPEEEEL
Method: as §1

Factor B = target: T9, Factor B (Homo sapiens, UniProt P00751); assay: as above; conditions: compound 100 microgm/mL; protein 32 ng/mL
T9 construct: purchased Sigma, St. Louis, MO
T9 sequence (P00751 26-764): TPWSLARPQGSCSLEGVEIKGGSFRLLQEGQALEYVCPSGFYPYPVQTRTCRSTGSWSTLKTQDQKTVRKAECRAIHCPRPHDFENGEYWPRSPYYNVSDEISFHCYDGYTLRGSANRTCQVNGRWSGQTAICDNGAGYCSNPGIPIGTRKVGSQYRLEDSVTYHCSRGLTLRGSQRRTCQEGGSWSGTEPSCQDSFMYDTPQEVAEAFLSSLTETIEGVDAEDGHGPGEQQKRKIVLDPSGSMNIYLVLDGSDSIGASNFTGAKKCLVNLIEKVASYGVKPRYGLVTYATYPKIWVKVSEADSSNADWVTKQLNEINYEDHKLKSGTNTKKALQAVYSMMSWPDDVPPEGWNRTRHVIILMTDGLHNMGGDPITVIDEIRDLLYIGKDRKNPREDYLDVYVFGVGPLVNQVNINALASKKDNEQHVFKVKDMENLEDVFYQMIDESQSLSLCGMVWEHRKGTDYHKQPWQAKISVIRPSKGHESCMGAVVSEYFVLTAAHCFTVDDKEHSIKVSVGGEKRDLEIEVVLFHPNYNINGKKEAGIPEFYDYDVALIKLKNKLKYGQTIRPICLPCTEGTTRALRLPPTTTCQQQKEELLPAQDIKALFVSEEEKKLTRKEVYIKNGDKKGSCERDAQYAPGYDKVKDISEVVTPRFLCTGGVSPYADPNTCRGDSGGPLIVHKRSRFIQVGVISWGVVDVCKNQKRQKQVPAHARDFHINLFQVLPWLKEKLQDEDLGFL
Method: as §1

C3 = target: T10, C3 (Homo sapiens, UniProt P01024); assay: as above; conditions: compound 100 microgm/mL; protein 32 ng/mL
T10 construct: purchased Sigma, St. Louis, MO
Method: as §1

[1] = target: T11, C5b-9 membrane attack complex (Homo sapiens, UniProt P02748); assay: Western blot of red blood cell membranes, classical pathway (FIG. 4A); type: cell-based; conditions: zymosan-activated human serum, alternative pathway blocked by antibodies to properdin and Factor D
T11 construct: from tissue; host or cells: human serum, with human red blood cells as the target membrane
T11 sequence (P02748 22-559, one chain of several): as the sequence (P02748 22-559) above
Method: To determine at which stage of the complement cascade blockade was occurring, a variation of the CH50 assay was carried out. Instead of measuring hemolysis, western blot analyses of red blood cell membranes were carried out to determine which serum complement proteins were converted into activated complement products that became attached to susceptible membranes. Such attachment only occurs up to the stage of blockade. At stages beyond the blockade, they remain unchanged in the serum. Undiluted human serum was treated for 30 min with DAS-1, DAS-2, or acetyl salicylic acid. Then antibody-conjugated red blood cells in an equal volume were added. The mixtures were incubated at 37° C. for 1 h. They were then treated with a lysis buffer followed by a loading buffer for western blots. Equal amounts of protein from each sample were loaded onto gels and separated by 10% SDS-PAGE. Following SDS-PAGE, proteins were transferred to a PVDF membrane. The membranes were then treated with various primary antibodies followed by labeled secondary antibodies using well established techniques. Bands recognized by the antibodies were visualized by use of an enhanced chemiluminescence system and exposure to photographic film. For probing the same membrane with different antibodies, the membranes were treated with stripping buffer and then treated as before with a different primary antibody. […] The adjacent lane illustrates the effect of adding to the serum zymosan to activate complement, and antibodies to properdin and Factor D to block the alternative pathway. Sensitized red blood cells then become hemolyzed by classical pathway attack. Native serum proteins are consumed and become incorporated into the red cell membranes. C1q was not metabolized, but the band was intensified due to its dissociation from the C1 complex. Native C3 was no longer detected because it had been cleaved, and the C3b fragment had become covalently attached to the membrane. Its degradation product C3d was detected. C4 was no longer detected because it had similarly been cleaved and the C4b fragment attached to the membrane and metabolized into its degradation product C4d. This fragment was also detected. C5 was cleaved and a band for the C5a product detected. Finally, the C5b-9 membrane attack complex, which had formed on the red cell membrane causing its hemolysis, was detected. The next two lanes show the effects of incubation in the presence of DAS-1, DAS-2. […] This establishes that the block provided by DAS-1 and DAS-2 was at the MAC assembly stage.

C4 = assay: Fluorometric binding to immobilized protein (FIG. 6); set-up: species or system human; conditions: compound 100 microgm/mL; protein 32 ng/mL
Method: as §1

[2] = tested on: C3 convertase of the alternative pathway; assay: Western blot of red blood cell membranes, alternative pathway with C1 inhibitor (FIG. 5); type: cell-based, human; conditions: 1 microM; serum 15 fold dilution, zymosan, C1 inhibitor 1.8 micrograms/mL
Method: To determine the effects of DAS-1 and DAS-2 on the alternative pathway, further experiments were carried out as shown in FIG. 5. […] To these mixtures human RBCs (5×10^9) were added. The mixtures were incubated for 1 h at 37° C. and centrifuged at 5,000 rpm for […]. The pellets were washed two times with Hank's balanced salt solution (HBSS) and treated with sample loading buffer for SDS-PAGE and immunoblotting. The buffer consisted of 50 mM Tris (pH 6.8), 0.1% SDS, 0.1% bromophenol blue and 10% glycerol. To preserve the molecular complexes that had formed, mild conditions for SDS-PAGE were followed. The sample loading buffer used was 50 mM Tris (pH 6.8), 1% SDS, 0.1% bromophenol blue and 10% glycerol and 2% beta-mercaptoethanol.
However an independent band for C3b was not detected. […] Lanes 3 and 4 show the results obtained in the presence of 1 microM of DAS-1 or DAS-2. […] Instead, strong bands for the earlier steps of PC3b and PC3bB appeared.

[3] = tested on: classical complement pathway; assay: CH50 assay, hemolysis of sensitized human red blood cells by zymosan-activated cat serum; type: cell-based; conditions: Felis catus, Erythrocyte, read-out: IC50, protection of human red blood cells from complement attack
Method: (§2) To evaluate the strength of blockade of the classical complement pathway achieved by DAS-1 and DAS-2, a standard CH50 assay was employed. Normal human red blood cells were sensitized by incubation overnight with rabbit anti red blood cell antibody. Then dilutions of serum activated by zymosan, with and without various amounts of DAS-1, DAS-2, or the precursor acetylsalicylic acid, were incubated with the sensitized red blood cells for 1 hour at 37° C. The incubates were centrifuged at 5,000 rpm for 10 min. The hemoglobin released into the serum from red blood cells that had been destroyed by complement attack, was determined by reading the optical density (OD) at 405 nm. As a positive control, red blood cells were 100% lysed with water, and as a negative control, no serum was added to the incubate.
(§3) DAS-1 and DAS-2 protected human red blood cells from complement attack by zymogen activated serum of human, rat, cat, and dog. FIG. 3A illustrates the result for DAS-1.

[4] = tested on: classical complement pathway; assay: CH50 assay, hemolysis of sensitized human red blood cells by zymosan-activated dog serum; type: cell-based; conditions: Canis lupus familiaris, Erythrocyte, read-out: IC50, protection of human red blood cells from complement attack
Method: as §2, §3

[5] = target: T11, C5b-9 membrane attack complex; assay: Western blot of membrane attack complex assembly stage with C6, C7, C8, C9 antibodies (FIG. 4B); type: cell-based; conditions: western blots probed with antibodies to C6, C7, C8 and C9
Method: To determine at which stage of the complement cascade blockade was occurring, a variation of the CH50 assay was carried out. Instead of measuring hemolysis, western blot analyses of red blood cell membranes were carried out to determine which serum complement proteins were converted into activated complement products that became attached to susceptible membranes. Such attachment only occurs up to the stage of blockade. At stages beyond the blockade, they remain unchanged in the serum. Undiluted human serum was treated for 30 min with DAS-1, DAS-2, or acetyl salicylic acid. Then antibody-conjugated red blood cells in an equal volume were added. The mixtures were incubated at 37° C. for 1 h. They were then treated with a lysis buffer followed by a loading buffer for western blots. Equal amounts of protein from each sample were loaded onto gels and separated by 10% SDS-PAGE. Following SDS-PAGE, proteins were transferred to a PVDF membrane. The membranes were then treated with various primary antibodies followed by labeled secondary antibodies using well established techniques. Bands recognized by the antibodies were visualized by use of an enhanced chemiluminescence system and exposure to photographic film. […] The C6 antibody detected C5b6, C5b67, and C5b678. The C7 antibody detected C5b67 and C5b678, while the C8 antibody detected C5b678. […]

[6] = tested on: classical complement pathway; assay: CH50 assay, hemolysis of sensitized human red blood cells by zymosan-activated human serum; type: cell-based; conditions: for pIC50: Erythrocyte, zymosan-activated human serum, read-out: IC50, protection of human red blood cells from complement attack
Method: as §2, §3

[7] = tested on: classical complement pathway; assay: CH50 assay, hemolysis of sensitized human red blood cells by zymosan-activated rat serum; type: cell-based; conditions: Erythrocyte, read-out: IC50, protection of human red blood cells from complement attack
Method: as §2, §3

T1 sequence (P13671 22-934): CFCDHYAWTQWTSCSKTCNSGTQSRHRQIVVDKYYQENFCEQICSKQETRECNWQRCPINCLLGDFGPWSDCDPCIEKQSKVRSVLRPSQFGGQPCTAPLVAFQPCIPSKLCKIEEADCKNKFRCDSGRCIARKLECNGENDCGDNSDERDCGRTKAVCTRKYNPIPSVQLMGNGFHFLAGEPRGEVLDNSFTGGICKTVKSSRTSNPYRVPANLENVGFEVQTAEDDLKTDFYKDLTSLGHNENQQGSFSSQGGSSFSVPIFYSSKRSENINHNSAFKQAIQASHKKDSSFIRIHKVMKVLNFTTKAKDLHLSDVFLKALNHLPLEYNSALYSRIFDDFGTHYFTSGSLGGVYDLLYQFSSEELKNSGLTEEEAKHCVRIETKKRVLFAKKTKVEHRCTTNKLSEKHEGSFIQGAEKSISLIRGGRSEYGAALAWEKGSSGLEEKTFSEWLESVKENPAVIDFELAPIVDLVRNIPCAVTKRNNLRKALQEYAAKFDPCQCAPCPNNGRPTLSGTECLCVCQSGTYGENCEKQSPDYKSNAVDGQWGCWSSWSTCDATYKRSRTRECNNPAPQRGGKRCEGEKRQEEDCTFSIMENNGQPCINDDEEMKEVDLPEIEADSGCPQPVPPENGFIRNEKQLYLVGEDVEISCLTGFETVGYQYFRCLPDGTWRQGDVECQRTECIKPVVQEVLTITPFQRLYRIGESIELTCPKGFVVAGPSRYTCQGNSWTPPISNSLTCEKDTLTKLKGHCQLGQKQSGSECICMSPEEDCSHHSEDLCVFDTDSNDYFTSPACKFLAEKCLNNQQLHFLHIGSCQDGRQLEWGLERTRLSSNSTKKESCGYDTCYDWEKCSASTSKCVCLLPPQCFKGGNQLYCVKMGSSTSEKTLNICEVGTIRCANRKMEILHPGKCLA

SMILES	binding to C6 (C6)	binding to C8 (C8)	binding to Factor D (Factor D)	binding to C5 (C5)	binding to C7 (C7)	binding to C9 (C9)	binding to C2 (C2)	binding to properdin (properdin)	binding to Factor B (Factor B)	binding to C3 (C3)	bands for the opsonization steps versus unprotected lane [1]	detection of membrane attack complex on red cell membranes [1]	hemolysis of red cells [1]	binding to C4 (C4)	bands for PC3bBb and PC3bBbC3b on RBC membranes [2]	bands for the earlier steps of PC3b and PC3bB on RBC membranes [2]	stage at which membrane attack complex formation is arrested [5]	also measured
CC(=O)Oc1ccc(-c2ccc(OC(C)=O)c(C(=O)O)c2)cc1C(=O)O [DAS-1, 4,4′-diacetoxy-[1,1′-biphenyl]-3,3′-dicarboxylic acid]	did not bind	did not bind	bound strongly	did not bind	did not bind	bound strongly	did not bind	no binding	did not bind	did not bind	Identical bands	not detected	not hemolyzed	did not bind	did not form	strong bands	arrested at the C8 stage	pIC50 ([3]; 1 hour at 37° C., OD 405 nm): 6.77; pIC50 ([4]; 1 hour at 37° C., OD 405 nm): 6.85; pIC50 ([6]; 1 hour at 37° C., OD 405 nm): 6.68; pIC50 ([7]; 1 hour at 37° C., OD 405 nm): 6.53
CC(=O)Oc1ccc(Cc2ccc(OC(C)=O)c(C(=O)O)c2)cc1C(=O)O [DAS-2, 5,5′-methylenebis(2-acetoxybenzoic acid)]	did not bind	did not bind	bound strongly	did not bind	did not bind	bound strongly	did not bind	no binding	did not bind	did not bind	Identical bands	not detected	not hemolyzed	did not bind	did not form	strong bands	same results as in lane 3	pIC50 ([3]; unit inferred): 6.89; pIC50 ([4]; unit inferred): 7.01; pIC50 ([6]; unit inferred): 6.95; pIC50 ([7]; unit inferred): 6.78
CC(=O)Oc1ccccc1C(=O)O [acetylsalicylic acid, reference compound]																		protective effect against hemolysis (FIG. 3C) ([6]; added at 1 mM, serum species not singled out (FIG. 3 covers human, rat, cat, dog)): no protective effect
